Source: publication PMC10948870, “De novo antioxidant peptide design via machine learning and DFT studies” (Scientific Reports, 2024)

What was measured:
[1] = Hydroxyl radical scavenging activity assay; format: biochemical; conditions: positive control, 0.5 mM solution; UV-Vis 510 nm
From the text: Hydroxyl radical is one of the strong reactive oxygen species in biological systems that react with the unsaturated fatty acid of phospholipids of the cell membrane and cause cell damage[36]–[38]. To assess the efficacy of peptides in countering hydroxyl radicals, we subjected them to a hydroxyl radical-scavenging activity assay, indicating their scavenging potential across a range of concentrations. The method for preparing the test samples, reagents, and control samples for the hydroxyl scavenging activity assay is as follows: initially, peptide samples at 10 mg/mL concentration were dissolved in ethanol, and subsequently, diluted concentrations of 2, 4, 6, and 8 mg/L were obtained from this solution. The assay reagent includes 6 mM hydrogen peroxide and 6 mM ferrous sulfate in ethanol. A solution of ascorbic acid with 0.5 mM concentration has been prepared as a positive control and a solution without the peptide sample is considered as negative control. […] After 30 min, the UV–Vis absorbance was determined at 510 nm. The determination of hydroxyl radical scavenging activity for the peptide samples was executed as follows:2 Hydroxyl radical scavenging activity%=A0-A1/A0×100, where A0 is the absorbance of the negative control (solution without the peptide sample) and A1 is the absorbance of the peptide samples.

[2] = DPPH scavenging activity assay; format: biochemical; conditions: compared among six synthesized peptides and with ascorbic acid 0.5 mM
Experimental: A straightforward and expeditious approach for quantifying the antioxidant activity of antioxidants involves employing the 2,2-diphenyl-1-picrylhydrazyl (DPPH) assay, a spectrophotometric technique[36]–[38]. Preparation of the test sample, reagent, and control sample in the DPPH assay is as follows: peptide samples with a concentration of 10 mg/mL were prepared in ethanol and then were diluted in 2, 4, 6, and 8 mg/L concentrations. The DPPH solution is prepared with a concentration of 0.02% (w/v) in methanol. A solution of 0.5 mM ascorbic acid has been prepared as a positive control, and methanol is considered as the negative control sample. The peptide sample (250 μL) with DPPH solution (250 μL) in ethanol (1.0 mL) was mixed and stirred in the dark for 30 min at room temperature. The solutions were analyzed using a UV–Vis instrument (Varian, Cary 100) at 517 nm. The calculation of antioxidant activity percentage is reported as the following equation:1 DPPH scavenging activity%=A0-A1/A0×100.
In Eq. (1), A0 is the absorbance of the negative control (methanol) and A1 is the optical absorbance of the peptide samples.

[3] = test system: red blood cells (RBCs); assay: Hemolysis assay; format: cell-based, human; conditions: 0.1% SDS + distilled water; 4 h room temperature; absorbance 450 nm
Experimental: The hemolysis test was performed as standard protocol. A 1.5 mL heparin blood sample was obtained from a healthy volunteer in our laboratory. The red blood cells (RBCs) were collected by centrifugation of blood samples at 3000 rpm for 15 min and then were washed three times with PBS. The RBC pellet was resuspended in a 10 mL phosphate-buffer solution (PBS). A 100 µL/well of different concentrations of peptides were added into a 96-well plate (2000 µg/mL, 1000 µg/mL, 500 µg/mL, 250 µg/mL, 125 µg/mL, 62.5 µg/mL, 31.25 µg/mL, 15.62 µg/mL, 7.8 µg/mL). For positive hemolysis control 100 µL/well of 0.1% sodium dodecyl sulfate and distilled water, and for negative hemolysis control 100 µL/well of PBS were added into the appropriated wells. After that, 100 µL RBC suspension was added into all the wells. The plate was incubated at room temperature for 4 h. Then the 100 µL supernatant of each well was carefully transferred to a new 96-well plate. The solution absorbance was investigated by a UV–Vis instrument at 450 nm.

Row | Compound | DPPH free radical scavenging activity, in words [2] | further results
1 | O=C1O[C@H]([C@@H](O)CO)C(O)=C1O [ascorbic acid] | – | Hydroxyl radical scavenging activity [1]: 93.9%
2 | YWYHF [GP10, ML-generated antioxidant peptide YWYHF, synthesized] | highest free radical scavenging activity | –
3 | YWHW [GP9, ML-generated antioxidant peptide YWHW, synthesized] | highest free radical scavenging activity | –
4 | LHHWY [GP12, ML-generated antioxidant peptide LHHWY, synthesized] | highest free radical scavenging activity | –
5 | CCCCCCCCCCCCOS(=O)(=O)[O-].[Na+] [SDS, sodium dodecyl sulfate] | – | Hemolysis, OD value of positive control [3]: 2.21
